Experimental data from publication PMC9320886, “Daily Intraperitoneal Administration of Rosiglitazone Does Not Improve Lung Function or Alveolarization in Preterm Rabbits Exposed to Hyperoxia” (Pharmaceutics, 2022).
Read-outs that look alike come from different tables or passages of the source.

Experiments:
[1] = pharmacokinetic profiling in preterm rabbits; type: in vivo; details: rabbit
Experimental: A total of 30 preterm rabbits with a GA of 28 days were featured in the pharmacokinetic study. […] Surviving pups were randomized to either receive an intratracheal (IT, local delivery, n = 15) or intraperitoneal (IP, systemic delivery, n = 15) dose of 1 mg/kg of RGZ. For IP injections, RGZ (10 mg/mL in DMSO) was dissolved in H2O + 10% Tween-80 at 0.4 mg/mL and then injected in the right flank based on the pups’ body weight. For IT injections, RGZ (50 mg/mL in DMSO; Merck KGaA) was dissolved in 80 mg/mL of Poractant alfa (Curosurf, Chiesi Farmaceutici, Parma, Italy) at 0.4 mg/mL; the injection volume was based on the pups’ body weight (2.5 mL/kg), as previously described.
Before sample collection, all pups were euthanized with a pentothal sodium overdose. All samples were stored at −20 °C until analysis.
Bioanalysis and quantification were performed using a fit-for-purpose LC/MS/MS method developed internally (LC and MS conditions already described in Section 2.2). Plasma and lung homogenate samples (lungs were homogenized with a water/acetonitrile 50/50 mixture) were extracted by means of protein precipitation with 3 volumes of acetonitrile (Sigma-Aldrich Co, St. Louise, MO, USA), and the supernatant was directly injected into the LC/MS/MS system.
The plasma and lung concentrations of RGZ were determined using a calibration curve prepared in the corresponding blank rabbit matrix (range of calibration: 2–500 ng/mL for plasma; 12–6000 ng/g for lungs) and the accuracy of the quantitation was verified using quality controls prepared in the same matrix and back-calculated on the curve.
Pharmacokinetic parameters were calculated by non-compartmental analysis using Phoenix WinNonlin (Certara L.P., Princeton, NJ, USA). The following PK parameters were calculated: Tmax, time of the maximum concentration; Cmax, maximum concentration; t1/2, half-life (calculable only in case of well-defined elimination phase); AUClast, area under the curve up to the last time point.

premature rabbits = test system: premature rabbits; parameters: method as in PMID 26375032; details: 3 mg/kg i.m. to the mothers 24 and 48 h prior to delivery; cited from earlier work
[2] = test system: preterm rabbits exposed to hyperoxia; assay: pulmonary efficacy, daily intraperitoneal 10 mg/kg, preterm rabbits exposed to hyperoxia; type: in vivo, rabbit; details: daily i.p. 10 mg/kg
Experimental: At Day 7, invasive lung function testing was performed using the forced oscillation technique with the flexiVent^TM apparatus (SCIREQ, Montréal, Canada). Pups were anesthetized with intramuscular ketamine (35 mg/kg) and xylazine (6 mg/kg) before a tracheostomy was performed, and an 18-gauge metal needle was inserted in the trachea and tied. Pups were connected to the volume-controlled mechanical ventilation of the flexiVent^TM (SCIREQ, tidal volume 10 mL/kg, frequency of 120 breaths/min, PEEP of 3 cmH2O). All pups were euthanized with a pentothal sodium overdose.
The following parameters were measured: total inspiratory capacity, resistance of the respiratory system (Rrs), lung tissue damping (G), lung tissue elastance (H), and static compliance (Cst). Three consistent measurements were obtained, with a coefficient of determination >0.95 as the limit to accept the measurement. The average of three measurements was calculated and used in the analysis.
At necropsy, lungs were removed en bloc and a 20-gauge catheter was secured inside the trachea. Lungs were fixed with 10% buffered formalin (Sigma-Aldrich) for at least 4 h under constant pressure (25 cmH2O) using a custom-made fixation device to ensure homogenous fixation pressures. After removal from pressure fixation, the lungs were first left in formalin for at least 24 h and then transferred to 70% ethanol.
The left lung and the right lungs were embedded in paraffin, cut, and stained with hematoxylin and eosin (H&E) following standard histology protocols. The radial alveolar count (RAC) was performed by an expert pathologist blinded to the experimental design by drawing a perpendicular line from the lumen of the terminal bronchiole to the nearest connective tissue septum or pleural margin and the number of saccules or alveoli crossed by this line was counted as previously described. In total, 20 measurements were performed for each lung pair.
An independent experimental session investigated the efficacy of RGZ at a higher dose (10 mg/kg). In total, 36 preterm rabbits with a GA of 28 days delivered from 4 does were randomized to either the control group (n = 18) or the RGZ 10 mg/kg group (n = 18 per group). Hyperoxia exposure, RGZ administration, animal care and feeding procedures, lung function testing, RAC, and sample collection were performed as described above.

[3] = parameters: method as in PMID 20729387; details: newborn mice, mothers received two antenatal doses of 3 mg/kg 48 and 72 h prior to delivery; cited from earlier work
[4] = pharmacokinetic profiling in preterm rabbits; type: in vivo, rabbit
[5] = test system: neonatal rats exposed to hyperoxia; parameters: method as in PMID 19304912; details: hyperoxia (95% O2), 1 or 3 mg/kg for 7 days; cited from earlier work
[6] = inhaled or intranasal, plasma, intratracheal 1 mg/kg
[7] = ip, plasma, intraperitoneal 1 mg/kg
[8] = rabbit, inhaled or intranasal, lung, intratracheal 1 mg/kg

CN(CCOc1ccc(CC2SC(=O)NC2=O)cc1)c1ccccn1 (stereo not shown) [RGZ, rosiglitazone]
half-life ([1]; inhaled or intranasal, lung, intratracheal 1 mg/kg): 900 min | AUC(0-t) [1, 6]: 25800 ng·h/mL | Cmax [1, 6]: 1950 ng/mL | Tmax [1, 6]: 15 min | Cmax ([1]; ip, lung, intraperitoneal 1 mg/kg): 1020 ng/g | Cmax [1, 7]: 2440 ng/mL | Tmax [1, 7]: 15 min | Kp ([1]; lung and plasma, ip, intraperitoneal 1 mg/kg, read-out: AUCLung/AUCPlasma): 0.7 | hyperoxic lung injury at PND 7 (premature rabbits): attenuated | plasma appearance [2]: white, dense appearance | RAC ([2]; PND 7, vs vehicle): no difference between groups | inspiratory capacity ([2]; PND 7, vs vehicle, p < 0.01): significantly lower | lung compliance (Cst) ([2]; PND 7, vs vehicle, p < 0.01): significantly lower | mortality ([2]; vs vehicle): similar | plasma levels [3]: 350 ng/mL | detectability in plasma and lung ([4]; intratracheal or intraperitoneal 1 mg/kg): detectable levels in both compartments up to 24 h | time of peak ([4]; plasma and lung tissue, irrespective of the administration method, 1 mg/kg): 0.25 h | Cmax [4, 8]: 1070 ng/g | Tmax [4, 8]: 15 min | half-life ([4]; rabbit, inhaled or intranasal, plasma, intratracheal 1 mg/kg): 900 min | Tmax ([4]; rabbit, ip, lung, intraperitoneal 1 mg/kg): 15 min | AUC(0-t) ([4]; rabbit, ip, plasma, intraperitoneal 1 mg/kg): 29500 ng·h/mL | Kp ([4]; rabbit, lung and plasma, inhaled or intranasal, intratracheal 1 mg/kg, read-out: AUCLung/AUCPlasma): 0.7 | concentration at 24 h ([4]; rabbit, plasma and lung, ip, 24 h after intraperitoneal administration, 1 mg/kg, read-out: levels in plasma and lung): > 500 ng/mL | RAC and alveolar septal thickness [5]: significantly improved
